Test results taken from PubChem BioAssay (NCI).
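Compound exposure: 48 hours, 5 concentrations, 96-well plates. Abbreviation: GI50, concentration required for 50% inhibition of growth. TGI is the concentration that stops growth completely.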

Legend:
Test in all cases: NCI tumour cell line growth inhibition, 48 h
SNB-19 CNS = test system: SNB-19 CNS
OVCAR-4 ovarian = test system: OVCAR-4 ovarian
EKVX NSCLC = test system: EKVX NSCLC
SF-268 CNS = test system: SF-268 CNS
UACC-62 melanoma = test system: UACC-62 melanoma
M14 melanoma = test system: M14 melanoma
MDA-MB-231 breast = test system: MDA-MB-231 breast
HCT-116 colon = test system: HCT-116 colon
HS 578T breast = test system: HS 578T breast
T-47D breast = test system: T-47D breast

SMILES	TGI (SNB-19 CNS) [µM]	TGI (OVCAR-4 ovarian) [µM]	TGI (EKVX NSCLC) [µM]	TGI (SF-268 CNS) [µM]	TGI (UACC-62 melanoma) [µM]	TGI (M14 melanoma) [µM]	GI50 (SNB-19 CNS) [µM]	GI50 (MDA-MB-231 breast) [µM]	TGI (MDA-MB-231 breast) [µM]	GI50 (HCT-116 colon) [µM]	TGI (HCT-116 colon) [µM]	GI50 (OVCAR-4 ovarian) [µM]	GI50 (HS 578T breast) [µM]	TGI (HS 578T breast) [µM]	GI50 (SF-268 CNS) [µM]	GI50 (UACC-62 melanoma) [µM]	GI50 (M14 melanoma) [µM]	GI50 (T-47D breast) [µM]	TGI (T-47D breast) [µM]	GI50 (EKVX NSCLC) [µM]
S=P1(c2ccccc2)Nc2ccc(Cl)cc2N1 (stereo unspecified)	> 100	> 100	> 100	> 100	26.4	56.9														
O=C1CSC(=S)N1Cc1cccnc1	> 100	25.4		23.3	24.7	39.4	47.8	4.47	17.2	3.36	11	7.78	17	66.1	5.75	11.3	15.3	11.1	32.7	
Cc1ccc(NC(=O)C(=O)C2NC(=S)NC2=O)c([N+](=O)[O-])c1 (stereo unspecified)	> 100	> 100	> 100	> 100	> 100	> 100					> 100									
O=C(CC(O)c1ccncc1)c1ccccc1 (stereo unspecified)	> 100	> 100		> 100	> 100	> 100	34.1	16.7	54.6	19.3	54.6	20.5	36.4	> 100	37.1	32	28.6	25.7	> 100	
O=C1Cc2ccccc2N1c1c(Cl)cccc1Cl	> 100	> 100	> 100	> 100	> 100	> 100					> 100									
CC1C=CC(C)C2(O)C(=O)NC(O)C12 (stereo unspecified)	> 100	> 100	> 100	> 100	> 100	> 100					> 100									
N#CCCN(CCC#N)c1ccc(/C=N\c2nc(-c3ccccc3)cs2)cc1	> 100	> 100	> 100	> 100	> 100	> 100					> 100									
CCC[CH2][Sn]1([CH2]CCC)[O]C(=O)c2cccc(OC)c2[O]1	2.13	2.25	2.7	0.841	1.18	1.56	0.799			0.494	1.69	1.05			0.194	0.312	0.422			1.31
COc1ccc2c(c1)C(=O)/C(=C/c1ccc([N+](=O)[O-])s1)O2	2	1.14		0.66	1.16	1.31	0.522	0.203	0.474	0.204	0.401	0.34	0.269		0.268	0.311	0.358	0.248	0.728	
CCCCCCCCCCCCSC(=NC)NC	17.6	5.61	17.6	22.5	3.21		3.06	2.02	4.15			2.16	2.41	7.07	3.82	1.68		2.04	4.77	3.71
CCN(CC)CCC(=O)N1CCc2c([nH]c3ccccc23)C1c1cccnc1 (stereo unspecified)	> 100	> 100	> 100	> 100	> 100	> 100					> 100									
C[N+](C)(C)Cc1c(CC#N)[nH]c2ccccc12	> 100	> 100	> 100	> 100	> 100	> 100					> 100									
CCCCCCCCCCCCCCCCOC(=O)c1c(C)[nH]c(/C=C2\N=C(c3ccc[nH]3)C=C2OC)c1C	80.3	53.6		19.6	0.62	0.452	11.8	0.789	10.1	0.043	7.33	2.71	1.41	9.38	1.99	0.235	0.152	0.433	12.8	
COc1ccc(CC2NCCc3cc(OC)c(OC)cc32)cc1 (stereo unspecified)	> 100	> 100	> 100	> 100	> 100	> 100					> 100									
CCOC(=O)N[C@H]1CCc2cc(O)c(OC)c(OC)c2-c2ccc(SC)c(=O)cc21	> 100	> 100	> 100	37.8	> 100	51.5					10.7									
COc1cc(C(=O)/C=C/c2c(-c3ccc(F)cc3)nc3ncccn23)cc(OC)c1OC	15.5	> 100	> 100	14.1			3.12	2.99	16.5	1.53	4.45	2.93	2.01	11.2	1.9			2.09	9.22	2.71
Cn1cnc([N+](=O)[O-])c1Sc1nc2cccnc2s1	> 100	25.2	33.8	69.1	32	26.8					29.5									
c1ccc2c(-c3nc4ccccc4[nH]3)cccc2c1	40.4	> 100		> 100	27.3	12	4.26	9.65	> 100	3.47	96.8	10.9	2.49	17.2	5.62	1.99	1.99	6.06	> 100	
CC1CC(=O)C(CC(=O)O)C1C(C(=O)C(=O)Nc1c(C#N)cccc1[N+](=O)[O-])[N+](=O)[O-] (stereo unspecified)	> 100	> 100	> 100	> 100	> 100	> 100					> 100									
